This note sets out measurements from patent publication US8404728B2 (priority 2009, dated 2013).

As a reminder, the Ki is a dissociation constant, usually derived from enzyme kinetics or from competition with a known ligand. Low readings indicate a stronger hold on the target, high ones a looser hold on the target. Usually inhibition stands for the change of the read-out against control, counted positive when it falls. A word on the Tmax: it is the time at which the peak concentration occurs. Broadly, the Cmax is the peak of the concentration-time curve.

The target in one data set is BoNTAe (Clostridium botulinum, UniProt P0DPI0). Description: biochemical. The conditions noted are these: for inhibition at 1 µM: read-out: % inhibition of BoNTAe; for inhibition at 20 µM: inhibitor concentration 20 μM.
The nature of the next data set: in vivo. The conditions noted are these: Balb/c, mouse, ip, 2 mg/kg.
The conditions of data set [1]: mouse, in vivo, ip, 2 mg/kg; for AUClast / Cmax / Vd: Balb/c.
For data set [2], the target named is botulinum neurotoxin serotype A (Clostridium botulinum, UniProt P0DPI0). Set-up: species or system Balb/c mice. The conditions noted are these: mouse, in vivo, ip.

Counter-ions that a name gives are not always drawn. Like-named read-outs stand apart in the source and are kept apart here.

Chain of BoNTAe (P0DPI0 2-448 limits assumed): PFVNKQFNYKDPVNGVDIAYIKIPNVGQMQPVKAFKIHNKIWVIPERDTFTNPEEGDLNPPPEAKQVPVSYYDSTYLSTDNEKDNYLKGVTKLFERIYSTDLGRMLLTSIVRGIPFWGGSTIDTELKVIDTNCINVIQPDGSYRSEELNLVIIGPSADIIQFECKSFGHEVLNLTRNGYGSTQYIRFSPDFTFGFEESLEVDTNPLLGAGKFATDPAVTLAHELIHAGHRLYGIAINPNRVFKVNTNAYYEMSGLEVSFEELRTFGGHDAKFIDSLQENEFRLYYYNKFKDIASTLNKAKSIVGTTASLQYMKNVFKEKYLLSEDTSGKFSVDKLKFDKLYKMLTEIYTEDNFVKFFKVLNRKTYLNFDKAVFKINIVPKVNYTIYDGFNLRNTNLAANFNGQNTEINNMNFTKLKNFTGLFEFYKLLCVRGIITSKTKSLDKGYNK
Chain of botulinum neurotoxin serotype A (P0DPI0 whole entry, looked up): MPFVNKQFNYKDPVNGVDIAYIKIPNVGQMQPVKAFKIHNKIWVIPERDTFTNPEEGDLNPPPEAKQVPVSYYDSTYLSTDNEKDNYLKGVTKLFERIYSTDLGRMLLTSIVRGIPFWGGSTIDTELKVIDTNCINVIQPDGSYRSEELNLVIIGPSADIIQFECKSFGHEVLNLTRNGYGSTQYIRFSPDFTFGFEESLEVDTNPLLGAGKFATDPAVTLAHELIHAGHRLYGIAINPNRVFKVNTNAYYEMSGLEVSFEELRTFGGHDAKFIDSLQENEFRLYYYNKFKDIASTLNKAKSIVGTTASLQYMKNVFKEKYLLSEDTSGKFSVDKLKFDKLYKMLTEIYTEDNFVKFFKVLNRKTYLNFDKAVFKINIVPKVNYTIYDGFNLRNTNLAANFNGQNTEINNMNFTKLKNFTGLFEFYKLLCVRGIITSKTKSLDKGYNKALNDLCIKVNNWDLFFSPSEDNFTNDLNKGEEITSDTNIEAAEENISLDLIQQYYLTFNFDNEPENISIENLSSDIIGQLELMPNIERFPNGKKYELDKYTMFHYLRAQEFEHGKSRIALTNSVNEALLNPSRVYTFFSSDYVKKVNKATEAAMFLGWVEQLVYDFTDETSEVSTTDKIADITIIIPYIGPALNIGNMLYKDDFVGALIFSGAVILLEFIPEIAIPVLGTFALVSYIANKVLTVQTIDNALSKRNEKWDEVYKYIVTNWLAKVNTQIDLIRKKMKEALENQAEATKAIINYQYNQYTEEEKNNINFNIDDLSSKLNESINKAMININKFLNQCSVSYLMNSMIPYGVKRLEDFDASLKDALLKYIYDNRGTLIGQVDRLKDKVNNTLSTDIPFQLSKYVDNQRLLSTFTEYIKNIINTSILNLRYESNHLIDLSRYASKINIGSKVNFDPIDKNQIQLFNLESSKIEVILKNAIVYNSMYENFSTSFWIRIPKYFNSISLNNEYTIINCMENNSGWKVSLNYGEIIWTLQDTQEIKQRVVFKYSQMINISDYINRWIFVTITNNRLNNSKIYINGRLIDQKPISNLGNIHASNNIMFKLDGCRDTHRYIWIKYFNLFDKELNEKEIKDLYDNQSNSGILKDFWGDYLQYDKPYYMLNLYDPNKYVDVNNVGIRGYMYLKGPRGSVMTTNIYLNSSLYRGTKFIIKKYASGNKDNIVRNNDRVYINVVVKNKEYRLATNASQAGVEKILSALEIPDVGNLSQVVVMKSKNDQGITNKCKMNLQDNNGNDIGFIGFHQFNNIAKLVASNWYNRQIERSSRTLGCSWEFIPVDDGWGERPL

`NCCCCCCCCCCN(CCCCCCCCCCN)C(=O)c1ccc(-c2cc3ccc(C(=O)c4cc(CC(=O)NO)c(-c5cccc(O)c5)s4)cc3n2CCCCN)cc1` [Inhibitor E1c, 4-(1-(4-aminobutyl)-6-(4-(2-(hydroxyamino)-2-oxoethyl)-5-(3-hydroxyphenyl)thiophene-2-carbonyl)-1H-indol-2-yl)-N,N-bis(10-aminodecyl)benzamide] gave a Ki at BoNTAe of 260 nM. The inhibition at 1 µM on BoNTAe (inhibitor concentration 1 μM) came out at 75 ± 1%.
With `NCCCCCCCCCCCN(CCCCCCCCCCCN)C(=O)c1ccc(-c2cc3ccc(C(=O)c4cc(CC(=O)NO)c(-c5cccc(O)c5)s4)cc3n2CCCCN)cc1` [Inhibitor E1d], at BoNTAe, the Ki turned out to be 340 nM and the inhibition at 1 µM stood at 68 ± 1%.
In the case of `NCCCCCCCCCCCCN(CCCCCCCCCCCCN)C(=O)c1ccc(-c2cc3ccc(C(=O)c4cc(CC(=O)NO)c(-c5cccc(O)c5)s4)cc3n2CCCCN)cc1` [Inhibitor E1e], at BoNTAe, the Ki stood at 360 nM and the inhibition at 1 µM amounted to 49%.
With `NCCCCCCN(CCCCCCN)C(=O)c1ccc(-c2cc3ccc(C(=NO)c4cc(CC(=O)NO)c(-c5cccc(O)c5)s4)cc3n2CCCCN)cc1` [Inhibitor E1f, 4-(1-(4-aminobutyl)-6-((4-(2-(hydroxyamino)-2-oxoethyl)-5-(3-hydroxyphenyl)thiophen-2-yl)(hydroxyimino)methyl)-1H-indol-2-yl)-N,N-bis(6-aminohexyl)benzamide], the inhibition at 1 µM at BoNTAe (inhibitor concentration 1 μM) amounted to 47 ± 1%.
With `NCCCCCN(CCCCCN)C(=O)c1ccc(-c2cc3ccc(C(=NO)c4cc(CC(=O)NO)c(-c5cccc(O)c5)s4)cc3n2CCCCN)cc1` [Inhibitor E1g], the inhibition at 1 µM on BoNTAe stood at 48%.
Turning to `NCCCCCCCCN(CCCCCCCCN)C(=O)c1ccc(-c2cc3ccc(C(=NO)c4cc(CC(=O)NO)c(-c5cccc(O)c5)s4)cc3n2CCCCN)cc1` [Inhibitor E1h], the inhibition at 1 µM on BoNTAe was 60 ± 1%.
In the case of `NCCCCn1c(-c2ccccc2)c(F)c2ccc(C(=O)c3cc(CC(=O)NO)c(-c4ccc(O)cc4)s3)cc21` [Inhibitor E2, 2-(5-(1-(4-Aminobutyl)-3-fluoro-2-phenyl-1H-indole-6-carbonyl)-2-(4-hydroxyphenyl)thiophen-3-yl)-N-hydroxyacetamide], the Tmax in the data set “in vivo” was determined as 30 min. In data set [1], the AUClast came out at 1386.4 ng·h/mL, the Cmax is given as 738.4 ng/mL, the Vd is reported as 14.95 L/kg and the T1/2 was found to be 6.5. For the same molecule, at 20 µM the inhibition against BoNTAe was 82 ± 6%. Moreover, the proportion of survivors entry in data set [2] is recorded as “significantly (p<0.05) increased the proportion of survivors”.
For `NCCCCn1c(-c2ccccc2)c(F)c2ccc(C(=O)c3cc(CC(=O)NO)c(-c4cccc(N)c4)s3)cc21` [Inhibitor E3, 2-(5-(1-(4-aminobutyl)-3-fluoro-2-phenyl-1H-indole-6-carbonyl)-2-(3-aminophenyl)thiophen-3-yl)-N-hydroxyacetamide], the Tmax in “in vivo” was found to be 60 min. Further, in data set [1], the AUClast is 1385.93 ng·h/mL, the Cmax is 255.99 ng/mL, the Vd is 12.84 L/kg and the T1/2 was determined as 6.25. This molecule registered an inhibition at 20 µM against BoNTAe of 47 ± 1%. For the same molecule, the proportion of survivors entry in data set [2] was “significantly (p<0.05) increased the proportion of survivors”.
Consider `NCCCCCCCN(CCCCCCCN)C(=O)c1cc(CCC(=O)NO)c(CCC(O)(c2ccccc2)c2ccccc2)n1Cc1ccccc1` [Inhibitor E4], for which, at BoNTAe, the Ki stood at 760 nM. Further, the inhibition at 1 µM at BoNTAe (inhibitor concentration 1 μM) was 52 ± 1%.
On BoNTAe, `NCCCCCCCN(CCCCCCCN)C(=O)c1cc(CCC(=O)NO)c(CCC(CO)(c2ccccc2)c2ccccc2)n1Cc1ccccc1` [Inhibitor E4b, N,N-Bis(7-aminoheptyl)-1-benzyl-5-(4-hydroxy-3,3-diphenylbutyl)-4-(3-(hydroxyamino)-3-oxopropyl)-1H-pyrrole-2-carboxamide] displayed a Ki of 210 nM. In addition, the inhibition at 1 µM at BoNTAe (inhibitor concentration 1 μM) stood at 79 ± 1%.
As to `O=C(CCc1cc(C(=O)Nc2cc(CCCCCCN3C(=O)c4ccccc4C3=O)c(OCCCCCCN3C(=O)c4ccccc4C3=O)c(CCCCCCN3C(=O)c4ccccc4C3=O)c2)n(Cc2ccccc2)c1C#CC(O)(c1ccccc1)c1ccccc1)NO` [Inhibitor E6, 1-Benzyl-N-(3,5-bis(6-(1,3-dioxoisoindolin-2-yl)hexyl)-4-(6-(1,3-dioxoisoindolin-2-yl)hexyloxy)phenyl)-5-(3-hydroxy-3,3-diphenylprop-1-ynyl)-4-(3-(hydroxyamino)-3-oxopropyl)-1H-pyrrole-2-carboxamide trifluoroacetic acid salt], on BoNTAe (inhibitor concentration 1 μM), the inhibition at 1 µM amounted to 50 ± 2%.
Still for that read-out and setting: the result for `O=C(CCc1cc(C(=O)Nc2cc(CCCCCCN3C(=O)c4ccccc4C3=O)c(OCCCCCCCN3C(=O)c4ccccc4C3=O)c(CCCCCCN3C(=O)c4ccccc4C3=O)c2)n(Cc2ccccc2)c1C#CC(O)(c1ccccc1)c1ccccc1)NO` [Inhibitor E6b, 1-Benzyl-N-(3,5-bis(6-(1,3-dioxoisoindolin-2-yl)hexyl)-4-(7-(1,3-dioxoisoindolin-2-yl)heptyloxy)phenyl)-5-(3-hydroxy-3,3-diphenylprop-1-ynyl)-4-(3-(hydroxyamino)-3-oxopropyl)-1H-pyrrole-2-carboxamide trifluoroacetic acid salt] reads 59 ± 2%.
As for `NCCCCCCCCCOc1c(CCCCCCN)cc(NC(=O)c2cc(CCC(=O)NO)c(CCC(N)(c3ccccc3)c3ccccc3)n2Cc2ccccc2)cc1CCCCCCN` [Inhibitor E6c], the inhibition at 1 µM on BoNTAe was determined as 55 ± 2%.
